Source: patent publication US9072698B2, “Method for screening anti-cancer compounds inhibiting function of TM4SF5 and anti-cancer composition containing chalcone compounds” (Seoul National University Industry Foundation, priority 2006, dated 2015)

How the values were obtained:
[1] = test system: cells not expressing TM4SF5; test: Growth/proliferation of cells not expressing TM4SF5 (FIG. 51); assay type: cell-based
SNU449Tp cells [2] = test: Comparison of TSAHC and analogues: cell morphology and multilayer growth by optical microscope (FIG. 69); assay type: cell-based, human; settings: 20 μM, 24 hr treatment
Description: TSAHC and its structural analogues were compared for their effects on TM4SF5-mediated events. Dimethyl sulfoxide (DMSO) and chalcone analogues, used in this test, have the following chemical structure.
SNU449 Cp cells and SNU449Tp cells were plated onto 6-well plates and treated with the above compounds at 20 μM for 24 hrs. Cells were monitored for changes in cell morphology using an optical microscope.

SNU449Tp cells [3] = test: Transwell chamber cell migration (FIG. 65); assay type: cell-based, human; settings: 20 μM, 18 hrs
Description: Cell migration was examined using Boyden Transwell chamber 24 well plates (Costar, Cambridge, Mass.). SNU449 Cp and SNU449Tp cells were placed in a chamber on a polycarbonate filter (8 μm porosity) at a density of 5×10^4 cells/well, and cultured in serum-free RPMI (Roswell Park Memorial Institute) media in an incubator at 37° C. under 5% CO2 for 24 hrs. Then, cells on the upper surface of the membrane of the insert chamber were completely removed by wiping with a cotton swab. Cells on the lower side of the membrane were fixed with 70% methanol for about 7 min.
SNU449 Cp cells and SNU449Tp cells were plated onto 6-well plates and cultured for 24 hrs. Cells were then treated with 20 μM of TSAHC to culture for 18 hrs. Cells were transferred into insert wells of the Transwell chamber. After 18 hrs, migrated cells were fixed, stained, and observed under an optical microscope. Cells were counted, and the results were expressed as a graph (FIG. 65).

SNU449Tp cells [4] = test: Invasion into Matrigel, Transwell chamber (FIG. 67); assay type: cell-based, human; settings: cultured for 24 hrs
Description: The invasiveness of SNU449Tp cells was also analyzed using Boyden Transwell chamber 24 well plates, as mentioned in Example 7-(1). Matrigel was added to the insert of the plates, and was allowed to solidify at 37° C. Cells were cultured as described above. After 24 hrs, cells on the upper surface of the membrane of the insert chamber were completely removed by wiping with a cotton swab. As a result, after […], cells that had invaded the lower side of the membrane were stained.
According to the same method described above, cells were seeded in the Transwell chamber, coated with a thick layer of Matrigel, and cultured for 24 hrs. Cells that invaded the Matrigel were counted, and the results are shown as a graph.

RhoA = test: In vitro RhoA activity assay (FIG. 48); assay type: cell-based, human; settings: TM4SF5-expressing cells
Description: In order to investigate signaling pathways involved in the aforementioned morphological change, TM4SF5-expressing cell lines (SNU449Tp, T3, T7 and T16), established in Example 1, were assessed for expression levels of FAK phosphorylated at Tyr577 (pY^577FAK) and c-Src phosphorylated at Tyr 416 (pY^416cSrc), Rac1 activity and RhoA activity. Whole cell lysates were prepared and subjected to Western blot analysis, which was performed with each antibody against proteins indicated in FIGS. 3 and 5. The activity of RhoA and Rac1 was monitored by pull-down of RhoA and Rac1 from the cell lysates in vitro.

MMP-2 and MMP-9 = test: Gelatin zymography of culture supernatants (FIG. 68); assay type: cell-based, human; settings: 20 μM, 24 hrs
Description: The substrate degradation activity of secreted MMPs was investigated using gelatin zymography. Cell lines, indicated in FIG. 62, were cultured in 60-mm culture dishes. After 18 hrs, the medium was exchanged with serum-free medium, and cells were cultured for a further 24 hrs. Culture supernatants were collected to obtain secreted MMPs, and were then concentrated. Samples were electrophoresed on the running SDS-PAGE gel containing gelatin as a substrate for MMPs under reducing conditions. The gel was washed in 1% Triton X-100 to remove SDS, thus renaturing the enzymes. The gel was then incubated in enzyme reaction buffer (10 mM CaCl2, 0.15 M NaCl, 50 mM Tris-HCl, pH 7.5) at 37° C. for 18 hrs. The gel was stained with 0.5% Coomassie Brilliant Blue R250 for 3 hrs, and destained until clear bands appeared in 10% acetic acid and 30% methanol.
In addition, Cp cells and Tp cells were treated with 20 μM of TSAHC for 24 hrs. The medium was exchanged with serum-free medium, and cells were cultured for a further 18 hrs. Culture supernatants were collected, concentrated, and analyzed using zymography, as described above.

[5] = test system: tumors formed in mice implanted with TM4SF5-expressing cells (SNU449Tp); test: Tumors in nude mice implanted with TM4SF5-expressing cells, intraperitoneal TSAHC; assay type: in vivo
Description: Next, various SNU449 cell lines, expressing or not expressing TM4SF5, were injected into nude mice. 4-5 week-old female nude BALB/cAnNCrjBgi-nu mice (Orient. Co. Ltd), weighing about 20 g, were used. Animals were housed in sterilized cages, and given free access to sterilized water and feed. All procedures were carried out in the clean bench in which laminar flow was continuously maintained to provide a clean environment.
Nude mice were maintained under a light cycle of 12-hr light and 12-hr dark using indoor lamps, for biological cycle of day and night. Suspensions of SNU449 Cp, SNU449Tp, SNU449T16 and SNU449T16m cells were centrifuged, and the concentrated cells were counted using a hemocytometer to adjust them to a density of 1×10^7 cells/200 The prepared cells were subcutaneously injected into the flank of nude mice using a 1-ml syringe having a 26-gauge needle. Experimental animals were maintained according to the preclinical method for breeding of laboratory animals, Seoul National University, and were monitored for tumor formation by SNU449Tp cells.
The length and width of tumors formed in nude mice, prepared in Example 6, were measured one every two days using calipers. Tumor volume was calculated according to the following Equation: Volume (mm^3)=Length×Width2×½, Length: long diameter, Width: short diameter). […]

## Cc1ccc(S(=O)(=O)Nc2ccc(C(=O)/C=C/c3ccc(O)cc3)cc2)cc1 [Compound 1, 4′-(p-toluenesulfonylamino)-4-hydroxychalcone]
[1]
  growth or proliferation of cells not expressing TM4SF5: did not affect cells not expressing TM4SF5
SNU449Tp cells [2]
  TM4SF5-mediated multilayer growth: effectively stimulate the growth of TM4SF5-expressing cells, not in a multilayer but in a monolayer arrangement
  cell morphology: changed the cell morphology into the same shape as that of SNU449 control cells not expressing TM4SF5
SNU449Tp cells [3]
  TM4SF5-mediated cell migration: inhibit TM4SF5-mediated cell migration
SNU449Tp cells [4]
  invasion into Matrigel: effectively inhibit invasion into Matrigel
RhoA
  RhoA activity: restored the reduced RhoA activity in TM4SF5-expressing cells
MMP-2 and MMP-9
  TM4SF5-mediated activity of MMPs: inhibit the TM4SF5-mediated activity of MMPs
[5]; 5 mg/kg intraperitoneally once every two days for three weeks
  tumor size decreased by: 45%
[5]; 50 mg/kg intraperitoneally once every two days for three weeks
  tumor size decreased by: 88%
